ChEMBL document CHEMBL1201862, “PubChem BioAssay data set” (2004)
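Compound exposure: 48 hours, 5 concentrations, 96-well plates. Abbreviation: GI50, concentration required for 50% inhibition of growth.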 The source made the active and inactive calls. Cut-off read from the data, not from the text of the source: active = GI50 up to about 1.1 µM and inactive = higher. Starred links: 1 amine or outer side, 2 acyl side, 3 side chain; linkers in the order of their positions; H or OH if unused. Non-standard residues stand in square brackets, D forms with d. Residues, ends and D or L forms follow the SMILES beside them. ξ: configuration not given here. X24 = O=C(C(CC(O)CO)O[*:1])[*:2]; Ile(3ξ) = CCC(C)[C@H](N)C(=O)O; NMeV = CN[C@H](C(=O)O)C(C)C; NMeA = CN[C@@H](C)C(=O)O; βAla = NCCC(=O)O

Key:
Assay in all cases: inhibition of tumour cell growth, NCI panel, 48 h
[1] = tested on: HOP-18
[2] = tested on: LXFL 529
[3] = tested on: M19-MEL
[4] = tested on: DMS-114
[5] = tested on: XF498
[6] = tested on: KM-20L2
[7] = tested on: RXF 631
[8] = tested on: DMS-273
[9] = tested on: SNB-78

Row | SMILES | GI50 [1] | GI50 [2] | GI50 [3] | GI50 [4] | GI50 [5] | GI50 [6] | GI50 [7] | GI50 [8] | GI50 [9]
1 | CN(C)CCc1ccc(Cl)cc1Cl | > 100 µM (inactive) | > 100 µM (inactive) | > 100 µM (inactive) | > 100 µM (inactive) | > 100 µM (inactive) | > 100 µM (inactive) | > 100 µM (inactive) | – | –
2 | CC(=O)O/N=C/c1cc2c(cc1Br)OCO2 | – | > 349 µM (inactive) | > 349 µM (inactive) | > 349 µM (inactive) | > 349 µM (inactive) | > 349 µM (inactive) | – | > 349 µM (inactive) | –
3 | CCC12CCCNC1c1c(n(C)c3ccccc13)C(C(=O)OC)C2 (centres undefined) | – | 80.2 µM (inactive) | 68.4 µM (inactive) | 18.5 µM (inactive) | 51.6 µM (inactive) | 44.3 µM (inactive) | – | 68.7 µM (inactive) | –
4 | CC(=O)O[C@H]1CC[C@@]2(C)C(=CC[C@@H]3C2CC[C@]2(C)Nc4c(cnn4-c4ccccc4)CC32)C1 (some centres undefined) | – | 17.9 µM (inactive) | 34.2 µM (inactive) | 37.1 µM (inactive) | 25.7 µM (inactive) | 3.78 µM (inactive) | – | 4.24 µM (inactive) | 14.4 µM (inactive)
5 | CCCCCCCCOCC(O)COC(C)C (centres undefined) | > 100 µM (inactive) | 93.8 µM (inactive) | 45.5 µM (inactive) | – | – | 85.1 µM (inactive) | – | 16.7 µM (inactive) | –
6 | COc1cc(C)c(C(=O)/C=C/c2cc(OC)c(O)c(OC)c2)cc1O | – | 20.4 µM (inactive) | 19.3 µM (inactive) | 20.5 µM (inactive) | 15.7 µM (inactive) | 26.5 µM (inactive) | 20.8 µM (inactive) | 15.5 µM (inactive) | 45.5 µM (inactive)
7 | CCOC1=CP(=O)(OCC)CC(C)=C1Cl (centres undefined) | – | > 100 µM (inactive) | > 100 µM (inactive) | > 100 µM (inactive) | – | > 100 µM (inactive) | – | 15.7 µM (inactive) | > 100 µM (inactive)
8 | COc1ccc2c(c1)[n+]([O-])c(C(=O)C/C(=N\NC(=O)C[N+](C)(C)C)C(=O)Nc1cc(Cl)ccc1Cl)c(C)[n+]2[O-] | > 100 µM (inactive) | > 100 µM (inactive) | > 100 µM (inactive) | – | – | – | – | > 100 µM (inactive) | > 100 µM (inactive)
9 | NC(CO)c1ccc(OCc2ccccc2)cc1 (centres undefined) | > 100 µM (inactive) | > 100 µM (inactive) | > 100 µM (inactive) | > 100 µM (inactive) | 76.9 µM (inactive) | > 100 µM (inactive) | – | > 100 µM (inactive) | > 100 µM (inactive)
10 | C=CCOC1CC(n2cnc3c(N)ncnc32)OC1CO (centres undefined) | – | > 100 µM (inactive) | > 100 µM (inactive) | > 100 µM (inactive) | > 100 µM (inactive) | > 100 µM (inactive) | – | > 100 µM (inactive) | –
11 | O=C(O)COc1ccc(O)c2c1C(=O)CCCC2=O | – | > 100 µM (inactive) | > 100 µM (inactive) | > 100 µM (inactive) | > 100 µM (inactive) | > 100 µM (inactive) | > 100 µM (inactive) | > 100 µM (inactive) | > 100 µM (inactive)
12 | O=C(/C=C\c1cccc2ccccc12)c1cccs1 | 10.2 µM (inactive) | 10.9 µM (inactive) | 8.3 µM (inactive) | 4.3 µM (inactive) | – | 10.7 µM (inactive) | – | 5.26 µM (inactive) | 15.1 µM (inactive)
13 | N#CC(C#N)=Cc1ccc(C(O)P(=O)(O)O)cc1 (centres undefined) | > 100 µM (inactive) | > 100 µM (inactive) | > 100 µM (inactive) | > 100 µM (inactive) | > 100 µM (inactive) | > 100 µM (inactive) | > 100 µM (inactive) | > 100 µM (inactive) | > 100 µM (inactive)
14 | O=C1NC2C=CN(Cc3ccccc3)C=C2C(=O)N2CCCC12 (centres undefined) | > 100 µM (inactive) | > 100 µM (inactive) | > 100 µM (inactive) | > 100 µM (inactive) | > 100 µM (inactive) | > 100 µM (inactive) | > 100 µM (inactive) | > 100 µM (inactive) | > 100 µM (inactive)
15 | COc1cc2cc3c4c(cc(OC)c(OC)c4c2cc1OC)CCN3C(=O)CCC(=O)O | – | > 100 µM (inactive) | – | > 100 µM (inactive) | – | > 100 µM (inactive) | – | > 100 µM (inactive) | > 100 µM (inactive)
16 | CCCCCCCC(=O)OCC(COC(=O)C(C)(C)C)OC(=O)Cc1ccccc1 (centres undefined) | > 100 µM (inactive) | > 100 µM (inactive) | > 100 µM (inactive) | > 100 µM (inactive) | – | > 100 µM (inactive) | – | > 100 µM (inactive) | –
17 | N#C/C(=N\c1ccccc1N(C(=O)c1ccccc1)C(=O)c1ccccc1)c1ccccc1 | > 40.4 µM (inactive) | 41 µM (inactive) | > 100 µM (inactive) | 4.63 µM (inactive) | 7.8 µM (inactive) | 9.71 µM (inactive) | – | 3.83 µM (inactive) | > 91 µM (inactive)
18 | Cc1cc(Cl)cc2c1NC(=O)C2(O)C(C)C(=O)c1ccc(Cl)cc1 (centres undefined) | > 92.9 µM (inactive) | > 66.5 µM (inactive) | 12.8 µM (inactive) | 37.3 µM (inactive) | 42.6 µM (inactive) | > 100 µM (inactive) | – | > 83.2 µM (inactive) | > 66.2 µM (inactive)
19 | CCOc1ccc2c(c1)[n+]([O-])c(-c1ccccc1Cl)c(N)[n+]2[O-] | > 100 µM (inactive) | > 100 µM (inactive) | > 100 µM (inactive) | > 100 µM (inactive) | > 100 µM (inactive) | > 100 µM (inactive) | > 100 µM (inactive) | > 100 µM (inactive) | > 100 µM (inactive)
20 | CCCC/C=C1\CCC(CN2CCOCC2)C1=O (centres undefined) | 0.653 µM (active) | 1.43 µM (inactive) | 4.02 µM (inactive) | 4.86 µM (inactive) | 1.64 µM (inactive) | 4.89 µM (inactive) | 14.9 µM (inactive) | 3.74 µM (inactive) | 8.39 µM (inactive)
21 | C=C1c2ccccc2N(S(=O)(=O)c2ccc(C)cc2)C12CCCCC2 | > 100 µM (inactive) | 37.2 µM (inactive) | 47.1 µM (inactive) | 18.9 µM (inactive) | > 100 µM (inactive) | > 100 µM (inactive) | – | 45 µM (inactive) | –
22 | COc1cc(C2C(C(=O)O)=C(COC(C)=O)Oc3cc4c(cc32)OCO4)cc(OC)c1OC(C)=O (centres undefined) | > 100 µM (inactive) | – | > 100 µM (inactive) | > 100 µM (inactive) | > 100 µM (inactive) | > 100 µM (inactive) | > 100 µM (inactive) | > 100 µM (inactive) | > 100 µM (inactive)
23 | CCC(C)[C@@H]1NC(=O)[C@@H]2CCCN2C(=O)C(CC(O)CO)OC(=O)CCNC(=O)[C@H](C)N(C)C(=O)[C@H](C(C)C)N(C)C1=O (some centres undefined) (cyclo([Ile(3ξ)][NMeV][NMeA][βAla][X24]P)) | – | 44.6 µM (inactive) | > 100 µM (inactive) | – | > 100 µM (inactive) | > 100 µM (inactive) | > 100 µM (inactive) | > 100 µM (inactive) | > 100 µM (inactive)
